Our source for the EC50, IC50 and outcome values is PubChem BioAssay AID179 (DTP/NCI, 2004).

Active and inactive are the calls of the source.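 The calls were made as follows: active = compounds giving half or more protection of infected cells from virus-caused growth loss, again on retest; inactive = the rest.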 *1 amine or outer side, *2 acyl side, *3 side chain or, on linkers, in order; H or OH if unused. Where a SMILES comes first, the peptide text is derived from it. [ ]: non-standard residue; d: D form. The star is where a group is joined. ξ: configuration not given here. X3 = CC(=O)N(C)SCC(N[*:1])C(=O)[*:2]; ξF = NC(Cc1ccccc1)C(=O)O; Cbz = O=C(OCc1ccccc1)*; Bn = c1ccc(C*)cc1

This experiment has as its system CEM cells HIV-1 protection, formazan growth assay. As to the kind of experiment: NCI AIDS Antiviral Assay. As to conditions: for IC50: measured here: growth of uninfected CEM cells. In a few lines: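 Protection of CEM cells against HIV-1 measured as cell growth via soluble formazan read-out, with five concentrations tested on both infected and uninfected cells; failure to protect may reflect toxicity.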

Broadly, the EC50 is the concentration that produces a half-maximal response. For orientation: IC50 means the midpoint of a concentration-inhibition curve.

As for `O=c1[nH]c(=O)n(C2OC(CO)C(O)C2O)cc1Oc1ccccc1` (stereo not given), the EC50 was above 200 µM and the concentration for half-maximal inhibition (IC50) is above 200 µM.
As to `CC(=O)Oc1ccc(C2SCc3nc4ccccc4n32)cc1` (stereo not given), the EC50 is above 200 µM and the IC50 worked out at 18.2 µM.
The corresponding values for `CC(C)N(C(=O)C12C3C4C5(C#N)C3C1(I)C5C42I)C(C)C` (stereo not given) are above 14.1 µM and above 14.1 µM.
Turning to `N=c1c2c(C(N)=O)cn(C3OC(CO)C(O)C3O)c2ncn1O` (stereo not given), the EC50 is above 0.2 µM and the IC50 was 0.191 µM.
Regarding `CC(=O)C(C(c1ccccc1)N1CCCc2ccccc21)N1CCOCC1` (stereo not given), the EC50 is above 200 µM and the IC50 stood at 61.7 µM.
The corresponding values for `NC(=O)c1ccccc1NC(=O)C(=O)C(c1cnc2ccc([N+](=O)[O-])cc2n1)[N+](=O)[O-]` (stereo not given) are above 61.7 µM and above 61.7 µM.
`CCC1(COC(NC(=O)c2ccccc2)(C(F)(F)F)C(F)(F)F)COC1`: the EC50 was above 200 µM and the IC50 worked out at 115 µM.
The corresponding values for `Cc1sc2nc3n(c(=O)c2c1C)N=CN(c1ccc(Cl)cc1)C3` are 9.33 µM and 50.1 µM.
Turning to `Clc1ccc(OCc2nnc3n2N=C(c2ccccc2)CS3)c(Cl)c1`, the result was inactive.
Take `COC1/C=C/OC2(C)Oc3c(C)c(O)c4c(O)c(c(/C=N/N5CCN(Cc6ccccc6)CC5)c(O)c4c3C2=O)NC(=O)C(C)=C/C=C/C(C)C(O)C(C)C(O)C(C)C(OC(C)=O)C1C` (stereo not given): the EC50 is above 200 µM and the IC50 was 10.2 µM.
The corresponding values for `O=C(NCCN1CCCCC1)c1ccc(I)cc1` are above 200 µM and above 200 µM.
In the case of `CCOC(=O)c1c[nH]c(C(=O)C=[N+]=[N-])c1C1CCN(CC)C1=S` (stereo not given), the EC50 is above 200 µM and the concentration for half-maximal inhibition (IC50) is 138 µM.
For the molecule `COc1ccc(OC2OC(CO)C(O)C(O)C2O)cc1` (stereo not given), the EC50 is above 200 µM and the IC50 was above 200 µM.
Take `CC(=O)[O-].CC(=O)[O-].O=C(N/N=C/c1cc(Cl)cc(Cl)c1[OH2+])c1ccncc1.[Co+2]`: the result was inactive.
For `CC(=O)Oc1cc(O)c2c(=O)c(OC(C)=O)c(-c3ccc(OC(C)=O)c(OC(C)=O)c3)oc2c1`, the EC50 is above 200 µM and the IC50 came out at 33.9 µM.
The corresponding values for `OCC1OC2NC(=S)OC2C1O` (stereo not given) are above 200 µM and above 200 µM.
The corresponding values for `Cc1ccccc1N1C(=O)C2C=CC(n3[nH]c(=O)n(Cc4ccccc4)c3=O)CC2C1=O` (stereo not given) are above 219 µM and above 219 µM.
With `CCCCC[C@@H]1CCCC2C1CCC(CCCCCO)N2C(=O)OCC(Cl)(Cl)Cl` (stereo not given in full), the result was inactive.
Still for that read-out and setting: the result for `O=c1nc(NC(c2ccccc2)(c2ccccc2)c2ccccc2)ccn1CCO` reads “inactive”.
In the case of `COc1ccc(-c2onc3ccc(Br)cc23)cc1`, the EC50 is above 23.4 µM and the IC50 was above 23.4 µM.
As for `N#C/C(=C\c1cc(Br)c(O)c(Br)c1)c1ccccn1`, the EC50 is above 200 µM and the IC50 amounted to 31.6 µM.
Regarding `Cc1cc(C)c2nc3c(c(C(O)C4CCCCN4)c2c1)CC/C3=C\c1ccc(Cl)cc1` (stereo not given), the EC50 was above 22.9 µM and the IC50 is above 22.9 µM.
`CCC(=O)SC1CC2=CC(=O)CCC2(C)C2CCC3(C)C(O)CCC3C12` (stereo not given): the EC50 was above 200 µM and the IC50 was above 200 µM.
Regarding `CC1(C)COC(CCCCCNC2=NCCCCC2)=N1`, the EC50 is above 200 µM and the IC50 is above 200 µM.
As for `O=C1c2ccccc2C(=O)c2c1cc(S(=O)(=O)O)c(O)c2O`, the outcome was inactive.
As to `O=C(O)CSc1cc(-c2ccc(Cl)cc2)s[s+]1`, the EC50 is above 200 µM and the IC50 was above 200 µM.
On to `CC(C)(C)[Si](C)(C)OCC1OC(n2ccc(=O)[nH]c2=O)C/C1=N/O` (stereo not given), for which the EC50 is above 200 µM and the IC50 worked out at 74.1 µM.
The corresponding values for `C=CCCC(CCC=C)(C(=O)O)C(=O)O` are above 1170 µM and above 1170 µM.
As for `COc1ccc(N2C(=O)C3c4[nH]c5ccc(C)cc5c4C4CCC(c5ccccc5)CC4C3C2=O)cc1` (stereo not given), the outcome was inactive.
Turning to `CC(C)(C)C(=O)/C=C/c1ccc(-c2ccccc2)cc1`, the EC50 was above 19.5 µM and the IC50 is above 19.5 µM.
For the molecule `Clc1ccc(CN2COc3c(ccc4ccccc34)C2)cc1Cl`, the EC50 was above 200 µM and the IC50 amounted to 31.6 µM.
The corresponding values for `CCC[CH2][Sn]1([CH2]CCC)[O]CC([CH2][Sn]([c]2ccccc2)([c]2ccccc2)[c]2ccccc2)[O]1` (stereo not given) are above 3.98 µM and 0.0234 µM.
Turning to `CC(C)=CC(=O)N1CCN(C(=O)C=C(C)C)CC1`, the EC50 is above 501 µM and the IC50 was above 501 µM.
For `O=C1[O][Hg][c]2cccc3cccc1c23`, the result was inactive.
In the case of `O=C1CSC(c2ccccc2[N+](=O)[O-])N1c1ccc(-n2c(-c3ccccc3)nc3ccccc3c2=O)cc1` (stereo not given), the EC50 was above 200 µM and the IC50 amounted to 126 µM.
As for `O=C1NN=C2CCCCCCC12` (stereo not given), the EC50 is above 302 µM and the IC50 is above 302 µM.
Consider `CC1(C)OC2C(=O)O[C@H](CO)C2O1` (stereo not given in full), for which the EC50 was above 200 µM and the half-inhibitory concentration (IC50) was above 200 µM.
Consider `C=C1[C@H]2C[C@H]3[C@@H]4N5C[C@]6(C)CCCC47C6[C@H]5CC3([C@@H]1O)[C@H]7[C@H]2O`, for which the outcome was inactive.
With `CC(=O)N(C)SCC(NC(=O)C(Cc1ccccc1)NC(=O)OCc1ccccc1)C(=O)NC(Cc1ccccc1)C(=O)NC(Cc1c[nH]c2ccccc12)C(=O)NC(CCCCNC(=O)OCc1ccccc1)C(=O)NC(C(=O)NC(CSN(C)C(C)=O)C(=O)NC(C(N)=O)C(C)OCc1ccccc1)C(C)OCc1ccccc1` (stereo not given) (Cbz-F[X3]FWK(Cbz)T(Bn)[X3]T(Bn)-NH2; configuration not given here), the EC50 is 55 µM and the 50% inhibitory concentration (IC50) amounted to 85.1 µM.
The corresponding values for `N#Cc1c(N)nc2c(N=Nc3ccccc3)c(N)nn2c1Nc1ccccc1` are above 200 µM and 9.55 µM.
The corresponding values for `CC1CC(Nc2ccc(NC3=CC(=O)OC(C)C3)cc2)=CC(=O)O1` (stereo not given) are above 200 µM and above 200 µM.
The corresponding values for `Cc1c(O)ccc(N=O)c1O` are above 200 µM and 123 µM.
For the molecule `CC1=CC(=O)C(=O)C2=C1OC1(C2)C(C)CCC2C3(C)CCC(O)C(C)(C)C3CCC21C` (stereo not given), the EC50 was above 100 µM and the IC50 is 47.9 µM.
The corresponding values for `O=C1OC(=O)C2C3CC(C4N=NN(c5ccccc5)C34)C12` (stereo not given) are above 200 µM and above 200 µM.
Take `O=C1OC(=O)C2C1C1(c3ccccc3)C(=O)C2(c2ccccc2)C(c2ccccc2)=C1c1ccccc1` (stereo not given): the result was inactive.
With `Cn1cc(NC(=O)c2cc(NC(=O)c3cc(NC(=O)c4ccc(C(=O)Nc5cn(C)c(C(=O)Nc6cn(C)c(C(=O)Nc7cn(C)c(C(=O)NCCC(=N)N)n7)n6)n5)cc4)cn3C)cn2C)cc1C(=O)NCCC(=N)N`, the EC50 was above 33.1 µM and the IC50 turned out to be 6.61 µM.
As to `CCN(CC)CC[NH-].O=C([O-])[O-].O=C([O-])[O-].[Co+3].[K+]`, the EC50 is above 200 µM and the IC50 is 18.6 µM.
Take `CN(C)C(=O)/N=C1\SC(=Nc2ccccc2)C(=Nc2ccccc2)N1c1ccc([N+](=O)[O-])cc1`: the outcome was inactive.
`CCOP(=O)(OCC)C(Nc1cccc([N+](=O)[O-])c1)c1ccccc1` (stereo not given): the EC50 was above 200 µM and the IC50 is 174 µM.
The corresponding values for `Cc1ccccc1NC(=O)CSc1nnc(Cc2ccccc2)o1` are above 263 µM and 234 µM.
The corresponding values for `COc1cccc(N2C(=O)C3C4C=C5c6ccccc6N(c6ccccc6)C5(C3C2=O)[C@H]2C(=O)N(c3cccc(OC)c3)C(=O)[C@@H]42)c1` (stereo not given in full) are above 4.37 µM and above 4.37 µM.
The corresponding values for `N#Cc1ccc(CSC2=C(c3ccc(Cl)cc3)S/C(=C3\SC(SCc4ccc(C#N)cc4)=C(c4ccc(Cl)cc4)S3)S2)cc1` are above 100 µM and above 100 µM.
As for `CC1=CC23C(COC(=O)C24CO4)C(C(=O)O)=CC3C1C` (stereo not given) (tested in a mixture with another compound), the EC50 was above 200 µM and the IC50 is 47.9 µM.
The corresponding values for `CNC(=O)Oc1ccc(Cl)cc1SSc1cc(Cl)ccc1OC(=O)NC` are above 200 µM and 8.32 µM.
The corresponding values for `Cc1nc2c(C#N)c3n(c2c(=O)o1)CCCC3` are above 200 µM and above 200 µM.
The corresponding values for `CCCCNC(=S)SSSSC(=S)NCCCC` are above 200 µM and 11.2 µM.
Consider `Cc1ccc(-c2cc(-c3ccco3)c(C#N)c(=S)[nH]2)cc1`, for which the EC50 was above 200 µM and the IC50 was determined as 120 µM.
Consider `Nc1nccc(NCC2(CO)CC(CCc3ccccc3)C2)n1` (stereo not given), for which the EC50 was above 200 µM and the 50% inhibitory concentration (IC50) is 10.5 µM.
The corresponding values for `CCOC(=O)CNC(=O)C(Cc1ccccc1)NC(=O)OCc1ccccc1` (stereo not given) (Cbz-[ξF]-Gly-OEt) are above 200 µM and 191 µM.
The corresponding values for `CCOc1ccc(/C=C(\C#N)c2cccc(Cl)c2)cc1` are above 200 µM and 8.51 µM.
On to `CCN(CC)c1ccc(/C=C2/C=Cc3ccccc32)cc1`, for which the EC50 is above 7.24 µM and the IC50 was above 7.24 µM.
With `CN(C)c1nc(N(C)C)nc(N(C)CN(C)c2nc(N(C)C)nc(N(C)C)n2)n1`, the EC50 was above 50.1 µM and the IC50 is above 50.1 µM.
For the molecule `Cc1c(C(=O)O)n(C)c(=O)n(C)c1=O`, the outcome was inactive.
For the molecule `CCOC(=O)c1c(SC(=O)/C=C/c2ccccc2)n(-c2ccccc2)c(=S)n(-c2ccccc2)c1=O`, the EC50 is above 200 µM and the IC50 worked out at 79.4 µM.
The corresponding values for `CCOC(=O)C(=O)C(=O)NN(C)C1=NCCN1` are above 200 µM and above 200 µM.
As to `O=NN(CC1(O)OCC(O)C(O)C1O)C(Cc1c[nH]c2ccccc12)C(=O)O` (stereo not given), the result was inactive.
In the case of `CCCN=C(N)NC#N`, the EC50 is above 708 µM and the IC50 was above 708 µM.
Regarding `CCOC(=O)C(C(=S)SC)c1nn2c(=O)cc(C)nc2s1` (stereo not given), the EC50 was above 200 µM and the IC50 was 19.1 µM.
With `O=C1OC2=C(c3ccccc3)C(=O)OC2=C1c1ccccc1`, the outcome was inactive.
